# Read-outs that look alike come from different tables or passages of the source.
# What was measured:
# [1] = tested on: agitation in subjects suffering from schizophrenia
# male or female rats = details: daily subcutaneous injections up to 54 mcg/kg; cited from earlier work
# [2] = cited from earlier work
# pregnant rats = details: rat, cited from earlier work
# cytochrome P450 = details: human liver microsomes; cited from earlier work
# mouse lymphoma cell = details: mammalian mouse lymphoma cell forward mutation assay; cited from earlier work
# human lymphocyte = details: cited from earlier work
# [3] = tested on: bone marrow of CD-1 and NMRI mice; details: cited from earlier work
# [4] = tested on: bacterial reverse mutation; details: in vitro Ames bacterial reverse mutation test; cited from earlier work
# [5] = tested on: adult patients and healthy adult subjects; details: loading IV bolus of undiluted drug, 19.4 mcg/kg; one patient; cited from earlier work
# [6] = human, in vivo, iv
# Source text: Mean infusion rate is 0.36 mcg/kg/hr with the maximum rate ranging from about 0.2 mcg/kg/hr to about 0.6 mcg/kg/hr (see FIGS. 18 to 20).
# [7] = tested on: pregnant rats and offspring; details: rat, cited from earlier work
# [8] = cited from earlier work; remark: listed apart in the source
# pregnant rabbits = details: rabbit; intravenous up to 96 mcg/kg/day, GD 6 to 18; cited from earlier work
# plasma proteins = details: cited from earlier work
# [9] = radiolabeled, intravenous, after nine days
structure (smiles),measurement,setting,value
"Cc1cccc([C@H](C)c2cnc[nH]2)c1C [Dexmedetomidine, (+) 4-(S)-[1-(2,3-dimethylphenyl)ethyl]-1H-imidazole]",PEC value,"[1]; Patient 1 (treatment arm), 0 min after infusion start",9
same,PEC value,"[1]; Patient 1 (treatment arm), 15 min after infusion start",5
same,PEC value,"[1]; Patient 2 (treatment arm), 0 min after infusion start",16
same,PEC value,"[1]; Patient 2 (treatment arm), 15 min after infusion start",13
same,PEC value,"[1]; Patient 2 (treatment arm), 30 min after infusion start",12
same,PEC value,"[1]; Patient 2 (treatment arm), 45 min after infusion start",11
same,PEC value,"[1]; Patient 2 (treatment arm), 60 min after infusion start",9
same,PEC value,"[1]; Patient 2 (treatment arm), 75 min after infusion start",7
same,PEC value,"[1]; Patient 3 (treatment arm), 0 min after infusion start",12
same,PEC value,"[1]; Patient 3 (treatment arm), 15 min after infusion start",12
same,PEC value,"[1]; Patient 3 (treatment arm), 30 min after infusion start",10
same,PEC value,"[1]; Patient 3 (treatment arm), 45 min after infusion start",7
same,PEC value,"[1]; Patient 3 (treatment arm), 60 min after infusion start",6
same,PEC value,"[1]; Patient 4 (treatment arm), 0 min after infusion start",9
same,PEC value,"[1]; Patient 4 (treatment arm), 15 min after infusion start",9
same,PEC value,"[1]; Patient 4 (treatment arm), 30 min after infusion start",8
same,PEC value,"[1]; Patient 4 (treatment arm), 45 min after infusion start",8
same,PEC value,"[1]; Patient 4 (treatment arm), 60 min after infusion start",7
same,PEC value,"[1]; Patient 4 (treatment arm), 75 min after infusion start",7
same,PEC value,"[1]; Patient 4 (treatment arm), 90 min after infusion start",7
same,PEC value,"[1]; Patient 4 (treatment arm), 120 min after infusion start",7
same,PEC value,"[1]; Patient 4 (treatment arm), […] after infusion start",7
same,PEC value,"[1]; Patient 11 (treatment arm), 0 min after infusion start",13
same,PEC value,"[1]; Patient 11 (treatment arm), 15 min after infusion start",13
same,PEC value,"[1]; Patient 11 (treatment arm), 30 min after infusion start",11
same,PEC value,"[1]; Patient 11 (treatment arm), 45 min after infusion start",9
same,PEC value,"[1]; Patient 11 (treatment arm), 60 min after infusion start",9
same,PEC value,"[1]; Patient 11 (treatment arm), 75 min after infusion start",7
same,PEC value,"[1]; Patient 12 (treatment arm), 0 min after infusion start",13
same,PEC value,"[1]; Patient 12 (treatment arm), 15 min after infusion start",13
same,PEC value,"[1]; Patient 12 (treatment arm), 30 min after infusion start",13
same,PEC value,"[1]; Patient 12 (treatment arm), 45 min after infusion start",10
same,PEC value,"[1]; Patient 12 (treatment arm), 60 min after infusion start",10
same,PEC value,"[1]; Patient 12 (treatment arm), 75 min after infusion start",8
same,PEC value,"[1]; Patient 12 (treatment arm), 90 min after infusion start",6
same,PEC value,"[1]; Patient 12 (treatment arm), […] after infusion start",5
same,PEC value,"[1]; Patient 14 (treatment arm), 0 min after infusion start",10
same,PEC value,"[1]; Patient 14 (treatment arm), 15 min after infusion start",9
same,PEC value,"[1]; Patient 14 (treatment arm), 30 min after infusion start",6
same,PEC value,"[1]; Patient 14 (treatment arm), 45 min after infusion start",6
same,PEC value,"[1]; Patient 14 (treatment arm), 60 min after infusion start",5
same,PEC value,"[1]; Patient 14 (treatment arm), 75 min after infusion start",5
same,PEC value,"[1]; Patient 16 (treatment arm), 0 min after infusion start",10
same,PEC value,"[1]; Patient 16 (treatment arm), 15 min after infusion start",9
same,PEC value,"[1]; Patient 16 (treatment arm), 30 min after infusion start",6
same,PEC value,"[1]; Patient 16 (treatment arm), 45 min after infusion start",6
same,PEC value,"[1]; Patient 16 (treatment arm), 60 min after infusion start",7
same,PEC value,"[1]; Patient 16 (treatment arm), 75 min after infusion start",5
same,PEC value,"[1]; Patient 17 (treatment arm), 0 min after infusion start",10
same,PEC value,"[1]; Patient 17 (treatment arm), 15 min after infusion start",8
same,PEC value,"[1]; Patient 17 (treatment arm), 30 min after infusion start",7
same,PEC value,"[1]; Patient 17 (treatment arm), 45 min after infusion start",5
same,Fertility,male or female rats,not affected
same,"Pharmacokinetics (Cmax, Tmax, AUC, t½, CL, and V) in renal impairment versus normal renal function",[2]; creatinine clearance <30 mL/minute,not significantly different
same,Extent of biotransformation,[2]; direct glucuronidation and cytochrome P450 (primarily CYP2A6),almost complete biotransformation
same,Clearance,[2]; intravenous administration,approximately 39 L/h
same,Steady-state volume of distribution (Vss),[2]; intravenous administration,approximately 118 liters
same,Radioactivity recovered in the feces,[2]; [9],4%
same,Radioactivity recovered in the urine,[2]; [9],95%
same,"Aliphatic hydroxylation products, share of the dose in urine","[2]; radiolabeled, intravenous",approximately 14%
same,"N-methylation products, share of the dose in urine","[2]; radiolabeled, intravenous",approximately 18%
same,"Products of N-glucuronidation, share of cumulative urinary excretion","[2]; radiolabeled, intravenous",approximately 34%
same,Share of urinary radioactivity excreted within 24 hours after the infusion,"[2]; radiolabeled, intravenous",Approximately 85%
same,Unchanged drug in the urine,"[2]; radiolabeled, intravenous",No unchanged dexmedetomidine was detected
same,Urinary metabolites not identified,"[2]; radiolabeled, intravenous",Approximately 28%
same,"Clearance in hepatic impairment (Child-Pugh Class A, B, or C)",[2]; versus normal hepatic function,decreased
same,Malformations,pregnant rats; any dose level,No malformations
same,Embryo-fetal findings,pregnant rats; subcutaneous 20 mcg/kg/day,No embryo-fetal toxicity
same,Embryo-fetal findings,"pregnant rats; subcutaneous 200 mcg/kg/day, GD 5 to 16, with maternal toxicity",Increased post-implantation losses and reduced live pups
same,Cytochrome P450 mediated drug interactions,cytochrome P450,no evidence of cytochrome P450 mediated drug interactions
same,Mutagenicity,mouse lymphoma cell,not mutagenic
same,Clastogenicity,human lymphocyte; absence or presence of human liver S9 metabolic activation,not clastogenic
same,Clastogenicity,human lymphocyte; presence of rat liver S9 metabolic activation,weak clastogenic response
same,Clastogenicity,[3]; CD-1 mice,not clastogenic
same,Clastogenicity,[3]; NMRI mice,some evidence for clastogenicity
same,Mutagenicity,[4],not mutagenic
same,Effects of overdose,[5],cardiac arrest
same,Time to reach Cmax,[6],15 to 105 min
same,Developmental findings when first generation offspring were mated,[7]; 32 mcg/kg/day,Decreased viability of second generation offspring and an increase in early implantation loss along with delayed motor development
same,Developmental findings,"[7]; subcutaneous 8 mcg/kg/day, GD 16 to PND 25",Reduced pup and adult offspring weights and grip strength
same,Placental transfer,[8]; available data in humans,crosses the placenta
same,Presence in human milk,"[8]; following intravenous administration, published literature",presence of dexmedetomidine in human milk
same,Malformation or embryo-fetal toxicity,pregnant rabbits,No malformation or embryo-fetal toxicity
same,Fraction bound to plasma proteins in hepatic impairment versus healthy subjects,plasma proteins,significantly decreased
same,Average protein binding,plasma proteins; plasma of healthy male and female subjects,94%

# Source: US12090140B2, “Non-sedating dexmedetomidine treatment regimens” (priority 2023, dated 2024)
